Experimental data from paper PMC11249646, “Small-Molecule Disruptors of the Interaction between Calcium- and Integrin-Binding Protein 1 and Integrin αIIbβ3 as Novel Antiplatelet Agents” (ACS Pharmacology & Translational Science, 2024).
Read-outs that look alike come from different tables or passages of the source.

Legend:
[1] = biological target: T1, GST-CIB1 : F-scrambled peptide (Homo sapiens, UniProt Q99828); assay: FP scrambled-peptide counter screen, 1536-well format; format: binding; settings: for Curve Class (counterscreen) / COUNTERSCREEN Curve Class: qHTS curve class; for IC50: read-out: IC50 [μM] (counterscreen)
T1 construct: made in house; host or cells: BL-21 plus RIL cells (E. coli)
T1 sequence (Q99828 1-191): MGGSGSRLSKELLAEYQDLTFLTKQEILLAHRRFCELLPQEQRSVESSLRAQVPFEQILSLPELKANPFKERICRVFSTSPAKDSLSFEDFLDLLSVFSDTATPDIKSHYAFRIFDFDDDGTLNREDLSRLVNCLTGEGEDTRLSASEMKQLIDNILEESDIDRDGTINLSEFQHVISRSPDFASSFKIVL

[2] = biological target: T2, CIB1 and αIIb interaction (CIB1-GST : F-αIIb peptide) (Homo sapiens, UniProt Q99828); assay: FP assay, 1536-well qHTS format (primary and confirmatory screen); format: binding; settings: for Curve Class (confirmatory screen) / CONFIRMATORY SCREEN Curve Class: qHTS curve class
T2 construct: made in house; host or cells: BL-21 plus RIL cells (E. coli)
T2 sequence (Q99828 1-191): T1 sequence (Q99828 1-191)

[3] = counterscreen, negative sign = inhibitory curve
[4] = confirmatory screen, negative sign = inhibitory curve
[5] = confirmatory screen, read-out: IC50 [μM] (confirmatory screen)
[6] = qHTS primary screen hits, Table S2, negative = inhibition
[7] = qHTS primary screen hits, Table S2, negative sign = inhibitory curve
[8] = qHTS primary screen hits, Table S2, read-out: IC50
[9] = qHTS FP screen hits, Table S2, negative = inhibition
[10] = qHTS FP screen hits, Table S2, one class per curve where COUNT > 1, negative sign = inhibitory curve
[11] = qHTS FP screen hits, Table S2, read-out: IC50
[12] = Table S3, counterscreen, YES/NO call
[13] = Table S3, counterscreen, a negative sign marks inhibitory curves
[14] = Table S3, counterscreen, negative = inhibition
[15] = Table S3, confirmatory screen, a negative sign marks inhibitory curves
[16] = Table S3, confirmatory screen, negative = inhibition
[17] = qHTS primary screen hits, Table S2, negative sign = inhibitory curve, several classes where COUNT > 1
[18] = Table S3, confirmatory screen, YES/NO call
[19] = Table S3, confirmatory screen, read-out: IC50 [μM] (confirmatory screen)

Row | SMILES | Efficacy (%) (counterscreen) ([1]; counterscreen) | Curve Class (counterscreen) [1, 3] | IC50 ([1]; counterscreen) | Efficacy (%) (confirmatory screen) ([2]; confirmatory screen) | Confirm? (confirmatory screen) ([2]; confirmatory screen, YES/NO) | Curve Class (confirmatory screen) [2, 4] | Efficacy (%) [2, 6] | IC50 [2, 8] | Efficacy (%) [2, 9] | IC50 [2, 11] | Curve Class [2, 17] | other results
1 | CCN1C(=O)c2ccccc2[S+]([O-])c2ccc(C(=O)NCc3cccc(F)c3)cc21 (centres unmarked) [NCGC00241657-01] | -26% | -1.4 | 35.5 µM | -68% | YES | -2.2 | -70% | 39.8 µM | – | – | – | Confirm? (counterscreen) ([1]; counterscreen, YES/NO): YES; IC50 [2, 5]: 50.1 µM; Curve Class [2, 7]: -2.2
2 | Fc1ccc(NC(=S)Nc2nnc(-c3ccncc3)s2)cc1C(F)(F)F.O=C(O)C(F)(F)F [NCGC00241743-01] | – | – | – | – | – | – | – | – | -41% | 22.4 µM | – | COUNTERSCREEN Efficacy (%) ([1]; counterscreen): 39%; COUNTERSCREEN Curve Class ([1]; counterscreen): 4; CONFIRMATORY SCREEN Efficacy (%) ([2]; confirmatory screen): -35%; CONFIRMATORY SCREEN Curve Class ([2]; confirmatory screen): 4; Curve Class [2, 10]: -2.2
3 | O=C(O)C(F)(F)F.O=C(O)c1ccc(O)c2ncc(N3CCC(N4CCOCC4)C3)cc12 (centres unmarked) [NCGC00241757-01] | – | – | – | – | – | – | – | – | -22% | 35.5 µM | – | COUNTERSCREEN Efficacy (%) ([1]; counterscreen): -21%; COUNTERSCREEN Curve Class ([1]; counterscreen): 4; CONFIRMATORY SCREEN Efficacy (%) ([2]; confirmatory screen): -17%; CONFIRMATORY SCREEN Curve Class ([2]; confirmatory screen): 4
4 | O=C(O)C(F)(F)F.O=C(O)c1ccc(O)c2ncc(-c3n[nH]nc3-c3ccccc3)cc12 [NCGC00241764-01] | -33% | 4 | – | -23% | YES | -1.4 | – | – | -21% | 28.2 µM | – | Confirm? (counterscreen) ([1]; counterscreen, YES/NO): YES; IC50 [2, 5]: 39.8 µM
5 | CC1=C[C@@H]2[C@H]([C@@H](O)C[C@@]3(C)[C@H]2C[C@@H](C)[C@]3(O)C(=O)CO)[C@@]2(C)Cc3cnn(-c4ccccc4)c3C=C12 [NCGC00242505-01] | -41% | -1.2 | 12.6 µM | -46% | YES | -1.4 | -30% | 37.6 µM | – | – | – | IC50 [2, 5]: 15.8 µM
6 | CCOC(=O)C1CCN(C(=O)C(C)(C)NC(=O)Nc2ccc(C#N)cc2)CC1.O=C(O)C(F)(F)F [NCGC00242565-01] | -30% | -1.4 | 15.8 µM | -28% | YES | -1.4 | – | – | -22% | 2.2 µM | – | IC50 [2, 5]: 7.9 µM
7 | CC(C)c1ccc(NC(=S)N/N=C2\C(=O)Nc3ccccc32)cc1.O=C(O)C(F)(F)F [NCGC00242646-01] | – | – | – | – | – | – | -16% | 10 µM | – | – | -1.4 | Confirm? (counterscreen) [1, 12]: YES; Curve Class (counterscreen) [1, 13]: -1.2; Efficacy (%) (counterscreen) [1, 14]: -36%; IC50 ([1]; Table S3, counterscreen): 12.6 µM; Curve Class (confirmatory screen) [2, 15]: 4; Efficacy (%) (confirmatory screen) [2, 16]: -28%
8 | O=C(O)C(F)(F)F.O=C1Nc2ccccc2/C1=N/NC(=S)Nc1cccnc1 [NCGC00242647-01] | – | – | – | – | – | – | -32% | 17.8 µM | – | – | -1.4 | COUNTERSCREEN Efficacy (%) ([1]; counterscreen): -17%; COUNTERSCREEN Curve Class ([1]; counterscreen): 4; CONFIRMATORY SCREEN Efficacy (%) ([2]; confirmatory screen): -44%; CONFIRMATORY SCREEN Curve Class ([2]; confirmatory screen): 4
9 | CCc1ccc(NC(=O)C(=O)NNC(=O)c2cccs2)cc1.O=C(O)C(F)(F)F [NCGC00244112-01] | – | – | – | – | – | – | -22% | 3.2 µM | – | – | – | Efficacy (%) (counterscreen) [1, 14]: 71%; IC50 ([1]; Table S3, counterscreen): 89.1 µM; Curve Class (confirmatory screen) [2, 15]: 4; Efficacy (%) (confirmatory screen) [2, 16]: 0%; Curve Class [2, 7]: -1.4
10 | Cc1cc(C)nc(NC(=S)N2CCN(c3ccc4nsnc4c3)CC2)c1.O=C(O)C(F)(F)F [NCGC00244160-01] | -93% | -2.2 | 39.8 µM | -106% | YES | -2.1 | -85% | 50.1 µM | – | – | -2.1 | –
11 | FC(F)(F)c1cccc(N2CCN(C(=S)Nc3nccc4cccnc34)CC2)c1.O=C(O)C(F)(F)F [NCGC00244201-01] | -43% | -1.2 | 22.4 µM | -88% | YES | -2.2 | – | – | -55% | 28.2 µM | – | Curve Class [2, 10]: -1.2
12 | O=C(NCCCN1CCNCC1)c1cccc(-c2cc(O)c3ncccc3c2)c1.O=C(O)C(F)(F)F [NCGC00244531-01] | – | – | – | – | – | – | – | – | -46% | 39.8 µM | – | Confirm? (counterscreen) [1, 12]: YES; Curve Class (counterscreen) [1, 13]: -1.2; Efficacy (%) (counterscreen) [1, 14]: -52%; IC50 ([1]; Table S3, counterscreen): 35.5 µM; Curve Class (confirmatory screen) [2, 15]: 4; Efficacy (%) (confirmatory screen) [2, 16]: -33%; Curve Class [2, 10]: -2.2
13 | COc1ccc(CC(=O)Nc2ccc(S(=O)(=O)Nc3cc(C)on3)cc2)cc1C.O=C(O)C(F)(F)F [NCGC00244861-01] | -14% | 4 | – | -69% | YES | -2.4 | -19% | 11.2 µM | – | – | -1.4 | Confirm? (counterscreen) ([1]; counterscreen, YES/NO): YES; IC50 [2, 5]: 39.8 µM
14 | Cc1cc(NS(=O)(=O)c2ccc(NC(=O)Cc3ccc(F)c(Cl)c3)cc2)no1.O=C(O)C(F)(F)F [NCGC00244873-01] | – | – | – | – | – | – | – | – | -25% | 10 µM | – | COUNTERSCREEN Efficacy (%) ([1]; counterscreen): -17%; COUNTERSCREEN Curve Class ([1]; counterscreen): 4; CONFIRMATORY SCREEN Efficacy (%) ([2]; confirmatory screen): -48%; CONFIRMATORY SCREEN Curve Class ([2]; confirmatory screen): 4
15 | Cc1cc(NS(=O)(=O)c2ccc(NC(=O)Cc3cccc4ccccc34)cc2)no1.O=C(O)C(F)(F)F [NCGC00244880-01] | – | – | – | – | – | – | -21% | 17.8 µM | – | – | -1.4 | Curve Class (counterscreen) [1, 13]: -2.2; Efficacy (%) (counterscreen) [1, 14]: -64%; IC50 ([1]; Table S3, counterscreen): 20 µM; Confirm? (confirmatory screen) [2, 18]: YES; Curve Class (confirmatory screen) [2, 15]: -2.2; Efficacy (%) (confirmatory screen) [2, 16]: -48%; IC50 [2, 19]: 31.6 µM
16 | Cc1coc2c1C(=O)C(=O)c1c-2ccc2c(C)cccc12 [NCGC00247624-03] | -73% | -2.2 | 44.7 µM | -85% | YES | -2.2 | – | – | -40% | 39.8 µM | – | Curve Class [2, 10]: -2.2
17 | CN(C)CCc1c[nH]c2cccc(O)c12 [NCGC00247728-01] | – | – | – | – | – | – | -105% | 28.2 µM | – | – | -2.3 | Curve Class (counterscreen) [1, 13]: -2.1; Efficacy (%) (counterscreen) [1, 14]: -126%; IC50 ([1]; Table S3, counterscreen): 89.1 µM; Confirm? (confirmatory screen) [2, 18]: YES; Curve Class (confirmatory screen) [2, 15]: -2.2; Efficacy (%) (confirmatory screen) [2, 16]: -101%; IC50 [2, 19]: 112 µM
